What all share (type): in vivo
One assay deals with rice (Oryza sativa). As to the kind of experiment: Test B flooded paddy: rice. To be noted: Flood; 250 g ai/ha; applied to paddy water at 2-leaf stage; visually evaluated after 13 to 15 days. The method, boiled down:
(§1)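 Flooded-pot test: compound dosed into 3 cm of standing water above soil when plants had two leaves. Visual control ratings (0–100) versus untreated plants after 13–15 d.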

Assay [1] concerns sedge, umbrella (small-flower umbrella sedge Cyperus difformis). As to the kind of experiment: Test B flooded paddy: sedge, umbrella. The following applies: Flood; 250 g ai/ha; applied to paddy water at 2-leaf stage; visually evaluated after 13 to 15 days. The method in brief:
as §1

For assay [2], the system named is winter wheat (Triticum aestivum). Put plainly: Test C pre-/postemergence: winter wheat. To be noted: Postemergence. From the text: (§2) Seeds of plant species selected from blackgrass (Alopecurus myosuroides), bromegrass, downy (downy bromegrass, Bromus tectorum), foxtail, green (green foxtail, Setaria viridis), ryegrass, Italian (Italian ryegrass, Lolium multiflorum), winter wheat (Triticum aestivum), wild oat (Avena fatua), galium (catchweed bedstraw, Galium aparine), bermudagrass (Cynodon dactylon), surinam grass (Brachiaria decumbens), cocklebur (common cocklebur, Xanthium strumarium), corn (Zea mays), large crabgrass (Digitaria sanguinalis), woolly cupgrass (Eriochloa villosa), foxtail, giant (giant foxtail, Setaria faberii), goosegrass (Eleusine indica), johnsongrass (Sorghum halepense), kochia (Kochia scoparia), lambsquarters (Chenopodium album), morningglory (Ipomoea coccinea), nightshade (eastern black nightshade, Solanum ptycanthum), nutsedge, yellow (yellow nutsedge, Cyperus esculentus), pigweed (Amaranthus retroflexus), ragweed (common ragweed, Ambrosia elation), soybean (Glycine max), common (oilseed) sunflower (Helianthus annuus), Russian thistle (Salsola kali) and velvetleaf (Abutilon theophrasti) were planted into a blend of loam soil and sand and treated preemergence with test chemicals formulated in a non-phytotoxic solvent mixture which included a surfactant.
(§3) At the same time, plants selected from these crop and weed species and also barley (winter barley, Hordeum vulgare), canarygrass (Phalaris minor), chickweed (common chickweed, Stellaria media) windgrass (Apera spica-venti) and deadnettle (henbit deadnettle, Lamium amplexicaule) were planted in pots containing Redi-Earth® planting medium (Scotts Company, 14111 Scottslawn Road, Marysville, Ohio 43041) comprising spaghnum peat moss, vermiculite, wetting agent and starter nutrients and treated with postemergence applications of test chemicals formulated in the same manner. Plants ranged in height from 2 to 18 cm (1- to 4-leaf stage) for postemergence treatments.
(§4) Treated plants and controls were maintained in a greenhouse for 13 to 15 days, after which time all species were compared to controls and visually evaluated. Plant response ratings, summarized in Table C, are based on a scale of 0 to 100 where 0 is no effect and 100 is complete control. A dash (-) response means no test result.

Assay [3] deals with galium (catchweed bedstraw, Galium aparine). Put plainly: Test C pre-/postemergence: galium. The following applies: Postemergence.
Text: as §2, §3, §4

For assay [4], the system named is cocklebur (common cocklebur, Xanthium strumarium). As to the kind of experiment: Test C pre-/postemergence: cocklebur. To be noted: Postemergence.
Text: as §2, §3, §4

For a further assay, the system named is corn (Zea mays). Put plainly: Test C pre-/postemergence: corn. The following applies: Postemergence.
Text: as §2, §3, §4

Assay [5] deals with lambsquarters (Chenopodium album). As to the kind of experiment: Test C pre-/postemergence: lambsquarters. The following applies: Postemergence.
Text: as §2, §3, §4

Assay [6] deals with velvetleaf (Abutilon theophrasti). As to the kind of experiment: Test C pre-/postemergence: velvetleaf. To be noted: Postemergence.
Text: as §2, §3, §4

Assay [7] deals with canarygrass (Phalaris minor). Put plainly: Test C postemergence: canarygrass.
Text: as §3, §4

The test system of assay [8] is morningglory (Ipomoea coccinea). As to the kind of experiment: Test C pre-/postemergence: morningglory. To be noted: Postemergence.
Text: as §2, §3, §4

[9] abbreviates: 31 g ai/ha, scale 0 to 100 (0 no effect, 100 complete control).
[10] abbreviates: 62 g ai/ha, scale 0 to 100 (0 no effect, 100 complete control).
The mark [11] stands for this setting: 125 g ai/ha, scale 0 to 100, 0 no effect, 100 complete control.

For `FC(F)(F)c1ccc(-n2nc(Cl)c(Cc3ccnc(C(F)(F)F)c3)n2)cc1` [Compound 28], the “Plant response rating, Rice (0 to 100 scale, 0 is no effect, 100 is complete control)” value with rice (Oryza sativa) was found to be 80. Besides, in [1], the “Plant response rating, Sedge, Umbrella (0 to 100 scale, 0 is no effect, 100 is complete control)” value worked out at 95. Further, the “Plant response rating, Wheat” value in assay [2] (setting [9]) is recorded as 5; in assay [2] (setting [10]) it was 10; in [2] (setting [11]) it was 10; in assay [2] (250 g ai/ha, scale 0 to 100) it was 20. The “Plant response rating, Galium” value in assay [3] (setting [9]) is on record as 40; in [3] (setting [10]) it was 55; in [3] (setting [11]), 70; in assay [3] (250 g ai/ha, scale 0 to 100), 80. For the same compound, the “Plant response rating, Cocklebur” value in assay [4] (setting [9]) worked out at 10; in [4] (setting [10]), 15; in [4] (setting [11]), 20; in assay [4] (250 g ai/ha, scale 0 to 100) it was 25. Besides, the “Plant response rating, Corn” value with corn (Zea mays) (setting [9]) is on record as 15; in the assay on corn (Zea mays) (setting [10]), 20; in the assay on corn (Zea mays) (setting [11]), 25; with corn (Zea mays) (250 g ai/ha, scale 0 to 100), 25. Besides, the “Plant response rating, Lambsquarters” value in [5] (setting [9]) stood at 35; in assay [5] (setting [10]) it was 35; in assay [5] (setting [11]) it was 95; in assay [5] (250 g ai/ha, scale 0 to 100) it was 95. Also, the “Plant response rating, Velvetleaf” value in [6] (setting [9]) is reported as 20; in assay [6] (setting [10]) it was 25; in assay [6] (setting [11]) it was 35; in assay [6] (250 g ai/ha, scale 0 to 100), 50. The “Plant response rating, Canarygrass” value in [7] (setting [9]) is on record as 30; in assay [7] (setting [10]) it was 50; in [7] (setting [11]) it was 60; in [7] (250 g ai/ha, scale 0 to 100), 90.
Regarding `Cc1nn(-c2ccc(F)cc2F)nc1Cc1ccnc(C(F)(F)F)c1` [Compound 54, 4-[[2-(2,4-difluorophenyl)-5-methyl-2H-1,2,3-triazol-4-yl]methyl]-2-(trifluoromethyl)pyridine], the “Plant response rating, Rice (0 to 100 scale, 0 is no effect, 100 is complete control)” value in the assay with rice (Oryza sativa) worked out at 30. Besides, the “Plant response rating, Sedge, Umbrella (0 to 100 scale, 0 is no effect, 100 is complete control)” value in assay [1] was 85.
Turning to `Cc1nn(-c2ccnc(Cl)c2)nc1Cc1ccnc(C(F)(F)F)c1` [Compound 141], the “Plant response rating, Rice (0 to 100 scale, 0 is no effect, 100 is complete control)” value in the assay with rice (Oryza sativa) came out at 35. Further, the “Plant response rating, Sedge, Umbrella (0 to 100 scale, 0 is no effect, 100 is complete control)” value in assay [1] came out at 85. For the same compound, the “Plant response rating, Wheat” value stood at 10 in [2] (setting [9]); 15 in [2] (setting [10]); 20 in [2] (setting [11]); 20 in assay [2] (250 g ai/ha, scale 0 to 100). Besides, the “Plant response rating, Galium” value in [3] (setting [9]) is 85; in assay [3] (setting [10]) it was 85; in assay [3] (setting [11]), 90; in assay [3] (250 g ai/ha, scale 0 to 100), 90. Further, the “Plant response rating, Cocklebur” value in assay [4] (setting [9]) was found to be 5. For the same compound, the “Plant response rating, Corn” value with corn (Zea mays) (setting [9]) stood at 45; in the assay on corn (Zea mays) (setting [10]) it was 45; in the assay on corn (Zea mays) (setting [11]), 55; with corn (Zea mays) (250 g ai/ha, scale 0 to 100) it was 60. The “Plant response rating, Lambsquarters” value is 98 in assay [5] (setting [9]); 98 in assay [5] (setting [10]); 98 in assay [5] (setting [11]); 98 in assay [5] (250 g ai/ha, scale 0 to 100). The “Plant response rating, Morningglory” value in [8] (setting [9]) worked out at 85; in assay [8] (setting [10]), 85; in [8] (setting [11]), 95. In addition, the “Plant response rating, Velvetleaf” value in assay [6] (setting [9]) worked out at 40; in assay [6] (setting [10]), 55; in assay [6] (setting [11]), 60; in assay [6] (250 g ai/ha, scale 0 to 100) it was 60. Further, the “Plant response rating, Canarygrass” value in assay [7] (setting [9]) was 20; in assay [7] (setting [10]), 25; in [7] (setting [11]) it was 50; in assay [7] (250 g ai/ha, scale 0 to 100), 80.

Source of the values: US9302999B2, “Substituted triazoles as herbicides” (E. I. DU PONT DE NEMOURS AND COMPANY, priority 2012, dated 2016).
